Paper PMC7071731 (Journal of molecular biology, 2019)

Tests used:
AcrB [1] = target: AcrB (Escherichia coli, UniProt P31224); assay: ITC; assay type: binding
AcrB [2] = target: AcrB (Escherichia coli, UniProt P31224, I27A); assay: ITC; assay type: binding
AcrB [3] = target: AcrB (Escherichia coli, UniProt P31224, V340A); assay: ITC; assay type: binding
AcrB [4] = target: AcrB (Escherichia coli, UniProt P31224, N298A); assay: ITC; assay type: binding
crystal structure = target: the molecule itself; assay: crystal structure

AcrB (Escherichia coli, UniProt P31224), sequence (P31224 whole entry): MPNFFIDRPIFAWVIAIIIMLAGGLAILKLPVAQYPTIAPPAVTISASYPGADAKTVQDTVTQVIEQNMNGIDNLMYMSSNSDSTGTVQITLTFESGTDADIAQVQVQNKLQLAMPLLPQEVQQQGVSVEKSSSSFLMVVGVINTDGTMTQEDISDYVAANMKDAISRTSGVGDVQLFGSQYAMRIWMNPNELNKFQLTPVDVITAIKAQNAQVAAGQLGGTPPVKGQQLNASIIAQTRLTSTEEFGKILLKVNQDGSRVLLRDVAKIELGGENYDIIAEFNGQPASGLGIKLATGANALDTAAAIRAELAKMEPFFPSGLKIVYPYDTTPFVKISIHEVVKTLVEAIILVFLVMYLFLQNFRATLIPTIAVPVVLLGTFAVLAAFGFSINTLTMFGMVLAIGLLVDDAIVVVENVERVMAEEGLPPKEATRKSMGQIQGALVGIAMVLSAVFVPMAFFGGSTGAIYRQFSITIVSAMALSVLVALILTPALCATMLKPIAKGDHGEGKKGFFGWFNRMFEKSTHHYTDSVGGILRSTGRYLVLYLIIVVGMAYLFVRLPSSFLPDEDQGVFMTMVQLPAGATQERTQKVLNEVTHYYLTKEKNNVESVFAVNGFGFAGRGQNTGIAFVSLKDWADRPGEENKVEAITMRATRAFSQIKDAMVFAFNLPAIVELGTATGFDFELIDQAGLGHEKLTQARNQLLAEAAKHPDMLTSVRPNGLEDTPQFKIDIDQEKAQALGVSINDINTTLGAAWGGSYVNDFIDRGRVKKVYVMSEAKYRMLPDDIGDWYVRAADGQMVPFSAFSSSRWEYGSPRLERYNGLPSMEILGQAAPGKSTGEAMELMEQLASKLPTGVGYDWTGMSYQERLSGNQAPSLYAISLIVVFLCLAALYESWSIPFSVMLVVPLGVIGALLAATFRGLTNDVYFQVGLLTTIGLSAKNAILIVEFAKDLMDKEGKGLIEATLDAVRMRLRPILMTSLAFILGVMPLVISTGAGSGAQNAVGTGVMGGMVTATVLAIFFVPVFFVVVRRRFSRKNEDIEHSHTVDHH

CC(=O)O[C@H]1C[C@@]2(C)[C@@H](C[C@@H](O)[C@H]3[C@@]4(C)CC[C@@H](O)[C@@H](C)[C@@H]4CC[C@@]32C)/C1=C(\CCC=C(C)C)C(=O)O [FUA, fusidic acid] gave a Kd (AcrB [1]) of 528 ± 8.6 µM, a Kd (AcrB [2]) of 405 ± 6.6 µM and a Kd (AcrB [3]) of 826.5 ± 4.8 µM. It also gave a Kd (AcrB [4]) of 1120 ± 18.2 µM.

B1: AcrB-N298A (natural protein)
chain: MPNFFIDRPIFAWVIAIIIMLAGGLAILKLPVAQYPTIAPPAVTISASYPGADAKTVQDTVTQVIEQNMNGIDNLMYMSSNSDSTGTVQITLTFESGTDADIAQVQVQNKLQLAMPLLPQEVQQQGVSVEKSSSSFLMVVGVINTDGTMTQEDISDYVAANMKDAISRTSGVGDVQLFGSQYAMRIWMNPNELNKFQLTPVDVITAIKAQNAQVAAGQLGGTPPVKGQQLNASIIAQTRLTSTEEFGKILLKVNQDGSRVLLRDVAKIELGGENYDIIAEFNGQPASGLGIKLATGAAALDTAAAIRAELAKMEPFFPSGLKIVYPYDTTPFVKISIHEVVKTLVEAIILVFLVMYLFLQNFRATLIPTIAVPVVLLGTFAVLAAFGFSINTLTMFGMVLAIGLLVDDAIVVVENVERVMAEEGLPPKEATRKSMGQIQGALVGIAMVLSAVFVPMAFFGGSTGAIYRQFSITIVSAMALSVLVALILTPALCATMLKPIAKGDHGEGKKGFFGWFNRMFEKSTHHYTDSVGGILRSTGRYLVLYLIIVVGMAYLFVRLPSSFLPDEDQGVFMTMVQLPAGATQERTQKVLNEVTHYYLTKEKNNVESVFAVNGFGFAGRGQNTGIAFVSLKDWADRPGEENKVEAITMRATRAFSQIKDAMVFAFNLPAIVELGTATGFDFELIDQAGLGHEKLTQARNQLLAEAAKHPDMLTSVRPNGLEDTPQFKIDIDQEKAQALGVSINDINTTLGAAWGGSYVNDFIDRGRVKKVYVMSEAKYRMLPDDIGDWYVRAADGQMVPFSAFSSSRWEYGSPRLERYNGLPSMEILGQAAPGKSTGEAMELMEQLASKLPTGVGYDWTGMSYQERLSGNQAPSLYAISLIVVFLCLAALYESWSIPFSVMLVVPLGVIGALLAATFRGLTNDVYFQVGLLTTIGLSAKNAILIVEFAKDLMDKEGKGLIEATLDAVRMRLRPILMTSLAFILGVMPLVISTGAGSGAQNAVGTGVMGGMVTATVLAIFFVPVFFVVVRRRFSRKNEDIEHSHTVDHH
B1: binds (crystal structure).

B2: AcrB-I27A (natural protein)
chain: MPNFFIDRPIFAWVIAIIIMLAGGLAALKLPVAQYPTIAPPAVTISASYPGADAKTVQDTVTQVIEQNMNGIDNLMYMSSNSDSTGTVQITLTFESGTDADIAQVQVQNKLQLAMPLLPQEVQQQGVSVEKSSSSFLMVVGVINTDGTMTQEDISDYVAANMKDAISRTSGVGDVQLFGSQYAMRIWMNPNELNKFQLTPVDVITAIKAQNAQVAAGQLGGTPPVKGQQLNASIIAQTRLTSTEEFGKILLKVNQDGSRVLLRDVAKIELGGENYDIIAEFNGQPASGLGIKLATGANALDTAAAIRAELAKMEPFFPSGLKIVYPYDTTPFVKISIHEVVKTLVEAIILVFLVMYLFLQNFRATLIPTIAVPVVLLGTFAVLAAFGFSINTLTMFGMVLAIGLLVDDAIVVVENVERVMAEEGLPPKEATRKSMGQIQGALVGIAMVLSAVFVPMAFFGGSTGAIYRQFSITIVSAMALSVLVALILTPALCATMLKPIAKGDHGEGKKGFFGWFNRMFEKSTHHYTDSVGGILRSTGRYLVLYLIIVVGMAYLFVRLPSSFLPDEDQGVFMTMVQLPAGATQERTQKVLNEVTHYYLTKEKNNVESVFAVNGFGFAGRGQNTGIAFVSLKDWADRPGEENKVEAITMRATRAFSQIKDAMVFAFNLPAIVELGTATGFDFELIDQAGLGHEKLTQARNQLLAEAAKHPDMLTSVRPNGLEDTPQFKIDIDQEKAQALGVSINDINTTLGAAWGGSYVNDFIDRGRVKKVYVMSEAKYRMLPDDIGDWYVRAADGQMVPFSAFSSSRWEYGSPRLERYNGLPSMEILGQAAPGKSTGEAMELMEQLASKLPTGVGYDWTGMSYQERLSGNQAPSLYAISLIVVFLCLAALYESWSIPFSVMLVVPLGVIGALLAATFRGLTNDVYFQVGLLTTIGLSAKNAILIVEFAKDLMDKEGKGLIEATLDAVRMRLRPILMTSLAFILGVMPLVISTGAGSGAQNAVGTGVMGGMVTATVLAIFFVPVFFVVVRRRFSRKNEDIEHSHTVDHH
B2: binds (crystal structure).

B3: AcrB-V340A (natural protein)
chain: MPNFFIDRPIFAWVIAIIIMLAGGLAILKLPVAQYPTIAPPAVTISASYPGADAKTVQDTVTQVIEQNMNGIDNLMYMSSNSDSTGTVQITLTFESGTDADIAQVQVQNKLQLAMPLLPQEVQQQGVSVEKSSSSFLMVVGVINTDGTMTQEDISDYVAANMKDAISRTSGVGDVQLFGSQYAMRIWMNPNELNKFQLTPVDVITAIKAQNAQVAAGQLGGTPPVKGQQLNASIIAQTRLTSTEEFGKILLKVNQDGSRVLLRDVAKIELGGENYDIIAEFNGQPASGLGIKLATGANALDTAAAIRAELAKMEPFFPSGLKIVYPYDTTPFVKISIHEAVKTLVEAIILVFLVMYLFLQNFRATLIPTIAVPVVLLGTFAVLAAFGFSINTLTMFGMVLAIGLLVDDAIVVVENVERVMAEEGLPPKEATRKSMGQIQGALVGIAMVLSAVFVPMAFFGGSTGAIYRQFSITIVSAMALSVLVALILTPALCATMLKPIAKGDHGEGKKGFFGWFNRMFEKSTHHYTDSVGGILRSTGRYLVLYLIIVVGMAYLFVRLPSSFLPDEDQGVFMTMVQLPAGATQERTQKVLNEVTHYYLTKEKNNVESVFAVNGFGFAGRGQNTGIAFVSLKDWADRPGEENKVEAITMRATRAFSQIKDAMVFAFNLPAIVELGTATGFDFELIDQAGLGHEKLTQARNQLLAEAAKHPDMLTSVRPNGLEDTPQFKIDIDQEKAQALGVSINDINTTLGAAWGGSYVNDFIDRGRVKKVYVMSEAKYRMLPDDIGDWYVRAADGQMVPFSAFSSSRWEYGSPRLERYNGLPSMEILGQAAPGKSTGEAMELMEQLASKLPTGVGYDWTGMSYQERLSGNQAPSLYAISLIVVFLCLAALYESWSIPFSVMLVVPLGVIGALLAATFRGLTNDVYFQVGLLTTIGLSAKNAILIVEFAKDLMDKEGKGLIEATLDAVRMRLRPILMTSLAFILGVMPLVISTGAGSGAQNAVGTGVMGGMVTATVLAIFFVPVFFVVVRRRFSRKNEDIEHSHTVDHH
B3: binds (crystal structure).
